From US20150005311A1, “IP receptor agonist heterocyclic compounds” (NOVARTIS AG, priority 2012, published 2015)

target: T1, IP receptor (Homo sapiens, UniProt P43119); experiment: cAMP accumulation in CHO cells stably expressing the IP receptor (CHO-IP), PerkinElmer AlphaScreen assay; assay type: cell-based; details: 1 hour at room temperature, 4-parameter logistic fit
T1 construct: expressed in transfected cells; host or cells: CHO cells stably expressing the IP receptor (CHO-IP)
Description: Activity of compounds at the IP receptor (IP receptor) is assessed by measuring cAMP accumulation in CHO cells stably expressing the IP receptor (CHO-IP) using the PerkinElmer AlphaScreen assay. This technology measures the endogenous production of cAMP, in a non-radioactive luminescence proximity homogenous assay. A biological reaction occurs between streptavidin coated donor beads, biotinylated cAMP and anti-cAMP acceptor beads, bringing the donor and acceptor beads close enough together so that upon excitation a fluorescence signal is produced. On production of endogenous cAMP, competition between the biotinylated cAMP and cellular-derived cAMP causes a reduction in the fluorescent signal. The reduction in signal is proportional to the amount of cAMP being produced, thus it is possible to quantify the amount of cAMP being produced on stimulation with agonist.
Test and reference compounds are prepared at 100×[final] in 100% DMSO, and diluted 1:3 using a Biomek Fx (Beckman Coulter). This is followed by an intermediate dilution to give 5×[final] in assay buffer (HBSS containing 5 mM HEPES, 0.1% (w/v) BSA). 5 μL of 5×[final] test compounds, reference compounds and buffer/DMSO control are then transferred to a 384-well white OptiPlate, containing 20 μL CHO-IP cell suspension (15,000 cells/well, prepared from frozen), and plate is incubated at room temperature for 1 hour. A cAMP standard curve is constructed for each experiment (concentration range of 10000 nM to 0.001 nM, in assay buffer) and 25 μL of each concentration added to the last two columns of the assay plate. The incubation is terminated by the addition of lysis buffer (dH2O; 0.3% (v v^−1) Tween-20) containing 20 units mL^−1 streptavidin coated donor beads and biotinylated cAMP (pre-incubated for 30 minutes) and 20 units mL^−1 anti-cAMP acceptor beads, which are added to the lysis buffer just before addition to the assay plate. The assay plate is then incubated at room temperature in the dark, for 60 minutes with gentle shaking, and read on the Envision plate reader (Perkin Elmer).
The raw data of the reference compounds, test compounds and controls are converted into cAMP concentrations, using the cAMP standard curve, in GraphPadPrism (GraphPad Software Inc). EC50 as well as maximal values of the agonist curves are determined using a 4-parameter logistic equation. The % maximum response values of all test compounds are determined using the top of the treprostinil concentration-response curve.

T1 sequence (P43119 whole entry): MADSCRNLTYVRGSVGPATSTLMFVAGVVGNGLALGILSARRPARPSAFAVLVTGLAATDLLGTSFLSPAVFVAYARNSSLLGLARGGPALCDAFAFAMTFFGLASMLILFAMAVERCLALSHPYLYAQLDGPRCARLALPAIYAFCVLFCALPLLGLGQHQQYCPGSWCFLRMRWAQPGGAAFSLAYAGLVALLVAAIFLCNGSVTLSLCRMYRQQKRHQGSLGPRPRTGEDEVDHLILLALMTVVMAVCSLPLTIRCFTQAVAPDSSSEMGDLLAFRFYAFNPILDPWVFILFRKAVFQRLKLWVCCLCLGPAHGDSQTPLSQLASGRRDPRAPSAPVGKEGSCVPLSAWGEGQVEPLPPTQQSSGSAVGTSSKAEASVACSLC

Row | Compound | EC50 [nM]
1 | Cc1ccc(-c2nc3c(nc2-c2ccc(C)cc2)N(CCCCCCc2nnn[nH]2)CC(O)C3)cc1 (racemic) [Example 3, rac-5-(6-(1H-Tetrazol-5-yl)hexyl)-2,3-di-p-tolyl-5,6,7,8-tetrahydropyrido[2,3-b]pyrazin-7-ol] | 0.04
2 | Cc1ccc(-c2nc3c(nc2-c2ccc(C)cc2)N(CCCCCc2nnn[nH]2)CC(O)C3)cc1 (racemic) [Example 4, rac-5-(5-(1H-Tetrazol-5-yl)pentyl)-2,3-di-p-tolyl-5,6,7,8-tetrahydropyrido[3,2-b]pyrazin-7-ol] | 5.63
3 | Cc1ccc(-c2nc3c(nc2-c2ccc(C)cc2)N(CCCCCCc2nnn[nH]2)CC(O)C3)cc1 (single isomer, unassigned) [Example 3a, (R)- or (S)-5-(6-(1H-tetrazol-5-yl)hexyl)-2,3-di-p-tolyl-5,6,7,8-tetrahydropyrido[2,3-b]pyrazin-7-ol]] | 2.06
4 | Cc1ccc(-c2nc3c(nc2-c2ccc(C)cc2)N(CCCCCCc2nnn[nH]2)CC(O)C3)cc1 (single isomer, unassigned) [Example 3b, (R)- or (S)-5-(6-(1H-tetrazol-5-yl)hexyl)-2,3-di-p-tolyl-5,6,7,8-tetrahydropyrido[2,3-b]pyrazin-7-ol]] | 1.71
5 | Cc1ccc(-c2nc3c(nc2-c2ccc(C)cc2)N(CCCCCc2nnn[nH]2)CC(O)C3)cc1 (single isomer, unassigned) [Example 4a, (R)- or (S)-5-(5-(1H-Tetrazol-5-yl)pentyl)-2,3-di-p-tolyl-5,6,7,8-tetrahydropyrido[2,3-b]pyrazin-7-ol]] | 0.62
6 | Cc1ccc(-c2nc3c(nc2-c2ccc(C)cc2)N(CCCCCc2nnn[nH]2)CC(O)C3)cc1 (single isomer, unassigned) [Example 4b, (R)- or (S)-5-(5-(1H-Tetrazol-5-yl)pentyl)-2,3-di-p-tolyl-5,6,7,8-tetrahydropyrido[2,3-b]pyrazin-7-ol]] | 0.86
7 | Cc1ccc(-c2nc3c(nc2-c2ccc(C)cc2)N(CCCCCCc2nnn[nH]2)CCC3)cc1 [Example 1, 5-(6-(1H-Tetrazol-5-yl)hexyl)-2,3-di-p-tolyl-5,6,7,8-tetrahydropyrido[2,3-b]pyrazine] | 0.11
8 | Cc1ccc(-c2nc3c(nc2-c2ccc(C)cc2)N(CCCCCc2nnn[nH]2)CCC3)cc1 [Example 2, 5-(5-(1H-tetrazol-5-yl)pentyl)-2,3-di-p-tolyl-5,6,7,8-tetrahydropyrido[2,3-b]pyrazine] | 0.07
